The subject of data set [1] is MDCK-MDR^1 cells (P-glycoprotein). Description: Bidirectional MDCK-MDR1 cell permeability. The data set is classed as in vitro ADME, canine. Here is the method: MDCK-MDR^1 cells were grown to confluence for 5-10 days on 1-μm filters in 24-well plates {Hilgers, 1990}. Aliquots of DMSO stocks were diluted into Hank's balanced salt solution (HBSS), pH 7.4, containing […] to give 10-μM solute concentration. The solute containing donor solutions were transferred to either the apical or basolateral chamber of the permeability diffusion apparatus. Receiver solutions consisted of HBSS (pH 7.4) containing 25 mM HEPES+0.05% PS80. Sequential samples of transported solute were taken at 20-min intervals using an automated liquid handling platform. The concentration of transported solute during each sampling interval was determined by HPLC/UV/MS. Permeability coefficients were calculated for each sampling interval. The average and standard deviation from the intervals are reported. Mass balance in the system was ascertained by comparing the sum of total transported solute and remaining donor solute with the starting mass of solute and is expressed as a percentage of donor solute at time zero. […] In the event of mass balance less than 70%, the cell monolayers were extracted with ACN and analyzed for the solute of interest. Determinations were conducted in duplicate.

The target in data set [2] is T1, CYP2C19 (Homo sapiens, UniProt P33261). The settings on record: for CYP Involvement: CYP2C19, NADPH + N-3-B; for Δ % Disappearance: reversible incubation condition, NADPH + N-3-B.
T1 sequence (P33261 whole entry): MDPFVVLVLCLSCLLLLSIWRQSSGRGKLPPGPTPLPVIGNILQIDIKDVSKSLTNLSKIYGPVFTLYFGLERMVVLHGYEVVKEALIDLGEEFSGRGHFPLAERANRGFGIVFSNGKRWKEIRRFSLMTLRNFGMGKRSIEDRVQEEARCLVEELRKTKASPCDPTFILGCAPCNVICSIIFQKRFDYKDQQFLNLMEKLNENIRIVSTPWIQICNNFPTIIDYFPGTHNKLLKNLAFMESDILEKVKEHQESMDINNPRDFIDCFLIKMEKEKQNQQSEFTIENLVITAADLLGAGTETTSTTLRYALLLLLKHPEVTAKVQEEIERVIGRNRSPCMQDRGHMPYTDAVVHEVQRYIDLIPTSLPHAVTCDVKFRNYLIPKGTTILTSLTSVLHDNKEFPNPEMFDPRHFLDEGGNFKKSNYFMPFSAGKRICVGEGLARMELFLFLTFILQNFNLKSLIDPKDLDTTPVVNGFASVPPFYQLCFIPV
Data set [3] relates to CYP2C19. The settings on record: reversible incubation condition, NADPH + N-3-B.
The nature of data set [4]: in vitro. The settings on record: rat, microsomes, pH 7.4.
Data set [5] is described as follows: in vitro. Conditions: mouse, 20% brain homogenate.
Data set [6] in a line: Binding in dog plasma.
Data set [7] is described as follows: Binding in mouse plasma. Conditions: for Percentage binding, Mouse plasma, 1 μM / Unbound (%), Mouse Plasma: 1 μM; for Unbound (%), Mouse Plasma: mean ± SD, n = 3 (warfarin n = 2).
Data set [8] is described as follows: Binding in human plasma. The settings on record: for Percentage binding, Human plasma, 1 μM / Unbound (%), Human Plasma: 1 μM; for Unbound (%), Human Plasma: mean ± SD, n = 3 (warfarin n = 2).
Data set [9] can be described thus: Toleration studies in mice. The settings on record: 210 mg/kg/day for 14 days, mice.
Data set [10] addresses T2, CYP1A2 (Homo sapiens, UniProt P05177).
T2 construct: tissue BD Biosciences; host or cells: pooled human liver microsomes
T2 sequence (P05177 1-516): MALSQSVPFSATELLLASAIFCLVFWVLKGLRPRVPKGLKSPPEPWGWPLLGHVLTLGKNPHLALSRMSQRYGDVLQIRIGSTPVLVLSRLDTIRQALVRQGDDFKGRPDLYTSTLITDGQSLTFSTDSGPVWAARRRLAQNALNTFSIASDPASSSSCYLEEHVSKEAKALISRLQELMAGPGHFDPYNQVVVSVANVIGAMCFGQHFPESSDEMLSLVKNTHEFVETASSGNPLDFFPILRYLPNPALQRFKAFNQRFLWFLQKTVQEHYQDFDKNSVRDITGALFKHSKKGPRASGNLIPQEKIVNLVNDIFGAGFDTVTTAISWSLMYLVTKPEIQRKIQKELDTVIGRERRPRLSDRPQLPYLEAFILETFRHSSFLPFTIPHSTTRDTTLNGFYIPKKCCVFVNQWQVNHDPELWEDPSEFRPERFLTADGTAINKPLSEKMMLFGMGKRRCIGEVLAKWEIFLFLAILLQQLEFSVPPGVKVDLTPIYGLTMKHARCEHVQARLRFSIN
Description: Cytochrome P450 phenotyping in human liver microsomes, CYP1A2 (furafylline). The data set is classed as in vitro ADME. Conditions: HLM, 10 μM furafylline. The text has this:
(§1) % Disappearance=[(TC-NADPH TC+NADPH)/TC-NADPH]×100
(§2) for which TC is the test compound.

Data set [11] addresses T3, CYP2C9 (Homo sapiens, UniProt P11712).
T3 construct: tissue BD Biosciences; host or cells: pooled human liver microsomes
Description: Cytochrome P450 phenotyping in human liver microsomes, CYP2C9 (sulfaphenazole). The data set is classed as in vitro ADME. Conditions: HLM, 5 μM sulfaphenazole.
Description: as §1, §2
On the technique in general: Liver microsomes are vesicles of endoplasmic reticulum, rich in cytochrome P450 enzymes.

For data set [12], the target named is T4, CYP2D6 (Homo sapiens, UniProt P10635).
T4 construct: tissue BD Biosciences; host or cells: pooled human liver microsomes
T4 sequence (P10635 whole entry): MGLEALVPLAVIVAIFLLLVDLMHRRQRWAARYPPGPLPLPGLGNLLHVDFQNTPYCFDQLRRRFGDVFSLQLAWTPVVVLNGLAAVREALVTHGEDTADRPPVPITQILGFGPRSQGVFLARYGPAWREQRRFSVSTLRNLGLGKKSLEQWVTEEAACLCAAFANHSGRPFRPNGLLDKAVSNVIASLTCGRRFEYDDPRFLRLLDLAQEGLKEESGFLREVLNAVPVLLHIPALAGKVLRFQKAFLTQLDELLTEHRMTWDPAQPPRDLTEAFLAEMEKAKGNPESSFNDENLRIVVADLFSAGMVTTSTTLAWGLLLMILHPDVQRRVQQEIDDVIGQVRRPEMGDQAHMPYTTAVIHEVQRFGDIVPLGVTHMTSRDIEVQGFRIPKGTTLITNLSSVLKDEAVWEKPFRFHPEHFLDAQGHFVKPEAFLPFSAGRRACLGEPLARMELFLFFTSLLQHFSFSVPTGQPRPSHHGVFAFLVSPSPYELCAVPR
Briefly: Cytochrome P450 phenotyping in human liver microsomes, CYP2D6 (quinidine). Format: in vitro ADME. Conditions: HLM, 1 μM quinidine.
Description: as §1, §2

The target in data set [13] is T5, CYP3A4 (Homo sapiens, UniProt P08684).
T5 construct: tissue BD Biosciences; host or cells: pooled human liver microsomes
T5 sequence (P08684 whole entry): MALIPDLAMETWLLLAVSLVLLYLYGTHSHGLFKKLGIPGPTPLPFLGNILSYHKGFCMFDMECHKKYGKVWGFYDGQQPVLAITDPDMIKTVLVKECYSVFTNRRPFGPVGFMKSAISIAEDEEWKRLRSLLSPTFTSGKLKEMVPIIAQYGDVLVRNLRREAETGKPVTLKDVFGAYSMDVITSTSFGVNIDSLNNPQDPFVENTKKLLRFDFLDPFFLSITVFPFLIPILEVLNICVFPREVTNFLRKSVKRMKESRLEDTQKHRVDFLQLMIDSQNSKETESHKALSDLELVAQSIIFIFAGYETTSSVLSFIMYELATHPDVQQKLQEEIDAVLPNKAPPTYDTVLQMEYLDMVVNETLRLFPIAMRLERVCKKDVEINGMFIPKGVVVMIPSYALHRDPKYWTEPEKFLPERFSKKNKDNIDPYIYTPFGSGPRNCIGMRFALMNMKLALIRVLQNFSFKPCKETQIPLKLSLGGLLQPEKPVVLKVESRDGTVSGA
Briefly: Cytochrome P450 phenotyping in human liver microsomes, CYP3A4 (ketoconazole). The data set is classed as in vitro ADME. The settings on record: HLM, 1 μM ketoconazole.
Description: as §1, §2

The target in data set [14] is T1, CYP2C19. The settings on record: HLM, 5 μM (+)-N-3-benzylnirvanol.
The nature of data set [15]: in vitro. Conditions: plasma.
Data set [16] in a line: in vitro. Conditions: rat, plasma, pH 7.4.
Data set [17] can be described thus: in vitro. Conditions: dog, plasma, pH 7.4.
Data set [18] in a line: in vitro. Conditions: human, plasma.
Data set [19] is described as follows: in vitro. Conditions: Sprague-Dawley (rat), beagle (dog), CD-1 (mouse), human, plasma.

SMILES strings stand for the structures.

T3 sequence (P11712 whole entry): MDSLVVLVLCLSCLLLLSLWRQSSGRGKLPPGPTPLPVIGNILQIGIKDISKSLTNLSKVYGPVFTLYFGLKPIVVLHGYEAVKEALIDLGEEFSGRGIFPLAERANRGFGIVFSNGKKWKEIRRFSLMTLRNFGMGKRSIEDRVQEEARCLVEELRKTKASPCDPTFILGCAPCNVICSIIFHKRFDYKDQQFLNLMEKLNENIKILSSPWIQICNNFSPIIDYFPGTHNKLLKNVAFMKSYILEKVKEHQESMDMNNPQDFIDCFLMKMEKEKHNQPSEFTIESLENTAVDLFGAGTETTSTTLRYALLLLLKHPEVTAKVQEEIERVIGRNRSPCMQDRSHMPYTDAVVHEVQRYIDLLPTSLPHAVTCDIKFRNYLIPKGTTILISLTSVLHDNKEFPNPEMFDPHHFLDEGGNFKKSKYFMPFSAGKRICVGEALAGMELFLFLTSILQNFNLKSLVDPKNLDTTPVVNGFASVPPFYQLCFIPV

Regarding `Cc1cccc(Nc2nc(-c3ccc(-c4ccccc4)cc3)cs2)n1` [IND24, (4-Biphenyl-4-yl-thiazol-2-yl)-(6-methyl-pyridin-2-yl)-amine], the “P-gp substrate status, absorptive vs secretory permeability” value in [1] is listed as “not substrates”. For the same compound, in data set [2], the “CYP Involvement” value was “Unlikely (unlikely for values <5)” and the “Δ % Disappearance” value is 0 (−18) %. For the same compound, in data set [3], the “% Disappearance” value came out at 18% and the “Measured Conc.” value was 0.537 µM. The half-life at 1 μM in data set [4] is over 1 h. In data set [5], this compound came in with a fraction unbound of 0.07 to 0.08. For the same compound, in data set [6], the “Percentage binding, Dog plasma, 1 μM” value amounted to 95.1 ± 1.38% and the “Percentage binding, Dog plasma, 10 μM” value is 95.0 ± 0.32%. Further, in [7], the “Percentage binding, Mouse plasma, 1 μM” value amounted to 93.4 ± 1.55%; the “Unbound (%), Mouse Plasma” value was 6.63 ± 1.55%; the “Percentage binding, Mouse plasma, 10 μM” value is recorded as 95.8 ± 0.14%. In data set [8], the “Percentage binding, Human plasma, 1 μM” value is listed as 95.1 ± 1.03%; the “Unbound (%), Human Plasma” value was determined as 4.91 ± 1.03%; the “Percentage binding, Human plasma, 10 μM” value was 95.4 ± 1.17%. In addition, the Toleration result in data set [9] was “well tolerated”.

For `Cc1ccnc(Nc2nc(-c3ccc(-c4ccccn4)s3)cs2)c1` [IND81, (4-Methyl-pyridin-2-yl)-[4-(5-pyridin-2-yl-thiophen-2-yl)-thiazol-2-yl]-amine], the “P-gp substrate status, absorptive vs secretory permeability” value in data set [1] is given as “not substrates”. Further, in data set [10], the “involvement of CYP1A2 in metabolism” value is “most likely to be involved”. The “involvement of CYP2C9 in metabolism” value in [11] is listed as “unlikely to be involved”. In addition, the “involvement of CYP2D6 in metabolism” value in data set [12] is recorded as “most likely to be involved”. For the same compound, the “involvement of CYP3A4 in metabolism” value in [13] is reported as “most likely to be involved”. For the same compound, in data set [14], the “involvement of CYP2C19 in metabolism” value was “might be involved to a smaller extent”. The “CYP Involvement” value in data set [2] was “Possible (possible for values 5-10)”. Also, the “Δ % Disappearance” value in data set [2] was 8.5%. For the same compound, the “% Disappearance” value in data set [3] is recorded as 57%. In addition, the “Measured Conc.” value in data set [3] was 0.283 µM. For the same compound, the fraction unbound at 4 h in data set [15] (CD-1, mouse, pH 7.4, free fraction in plasma) is about 0.57; in data set [15] (mouse, pH 7.4, free fraction in plasma) it was 0.06 to 0.09; in [15] (mouse, pH 7.4, plasma protein binding, 1 and 10 μM), 0.04 to 0.07; in data set [16] (Sprague-Dawley), about 0.57; in [16], 0.04 to 0.07; in [17] (beagle), about 0.57. The fraction unbound at 4 h in data set [17] was 0.04 to 0.07; in data set [18] (pH 7.4, free fraction in plasma) it was about 0.57; in [18] (pH 7.4, plasma protein binding, 1 and 10 μM), 0.04 to 0.07. The free fraction (fraction unbound) in data set [5] came out at 0.09; in [19], 0.57. For the same compound, in [6], the “Percentage binding, Dog plasma, 1 μM” value is recorded as 94.4 ± 1.88%. For the same compound, in data set [6], the “Percentage binding, Dog plasma, 10 μM” value stood at 94.7 ± 1.03%. Further, the “Percentage binding, Mouse plasma, 1 μM” value in [7] came out at 93.5 ± 1.10%. Further, in [7], the “Unbound (%), Mouse Plasma” value was 6.48 ± 1.10%. Also, the “Percentage binding, Mouse plasma, 10 μM” value in [7] is 96.0 ± 0.04%. Also, the “Percentage binding, Human plasma, 1 μM” value in data set [8] amounted to 94.2 ± 3.21%. For the same compound, the “Unbound (%), Human Plasma” value in [8] worked out at 5.78 ± 3.21%. The “Percentage binding, Human plasma, 10 μM” value in [8] was determined as 95.2 ± 0.86%.

What is called half-life is the time in which the quantity being followed falls by half. For orientation: fraction unbound means free concentration divided by total concentration. Read a high fraction unbound as weak binding.

For the origin of these results see patent US20140329863A1 (priority 2011, published 2014).
